Reference: article PMC11267533, “Ligandability at the Membrane Interface of GPx4 Revealed through a Reverse Micelle Fragment Screening Platform” (JACS Au, 2024)

Target: T1, GPx4 bound to DPC micelles (Homo sapiens, UniProt P36969, U73G)
T1 construct: Truncated U46G-GPx4 with a TEV cleavable poly-histidine tag was inserted into vector; poly-histidine tag with TEV cleavage site; host or cells: BL21 (DE3) E. coli
T1 sequence (P36969 1-170 isoform P36969-2 U46G): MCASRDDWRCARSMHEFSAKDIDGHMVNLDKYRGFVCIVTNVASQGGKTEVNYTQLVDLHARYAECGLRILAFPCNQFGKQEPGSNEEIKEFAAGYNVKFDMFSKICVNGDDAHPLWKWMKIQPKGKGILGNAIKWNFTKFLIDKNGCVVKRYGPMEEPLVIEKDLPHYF
Assay: 15N-HSQC CSP experiment with GPx4 bound to DPC micelles
Assay type: binding
Conditions: 400 μM analogue, 0.4% DMSO
Description: To investigate whether or not these fragments could be built upon and progress to higher affinity binders and potentially inhibitors, a secondary screening approach was used to find analogues of the original fragments. A fragment growing approach was followed due to the high success rate of improving fragment hits.[61],[62] Fragment growing improves binding affinity, or other properties, with the addition of different substitutions and/or expansions.[20] Commercially available analogues of fragments 1 and 5 were found by searching the ChemBridge (San Diego, CA) catalog for analogues with a 60% similarity for fragment 1 and a 70% similarity for fragment 5. A subset of analogues for each fragment was purchased and tested. These two fragments were the main focus for fragment progression due to their observed ability to partition into bilayers and bind to inhibitory regions of membrane-bound GPx4. Fragment 6 was not investigated further since it resides mainly in the water core of the mmRM model, and while interesting, it falls outside of our focus for this study. While all the five selected fragment 1 analogues produced reasonable CSPs in the membrane interface of GPx4; none produced titration curves that indicated enhanced binding (Table S1). […]

- CSPs of GPx4 bound to DPC micelles: reasonable CSPs were observed
Structure (SMILES): O=c1oc2c(-c3ccc(Cl)c(Cl)c3)cc(O)cc2s1 [Analog 5.5]
